Test results reported in patent US20090035758A1, “Method of Measurement of Micronucleated Erythrocyte Populations” (BECKMAN COULTER, INC., priority 2007, published 2009).

System: micronucleated reticulocytes (MNPCE) in mouse peripheral blood
Conditions: in vivo, 50 mg/kg, 24 h
Procedure: 200 to 300 μl of a peripheral blood sample was collected from a mouse using orbital veinipuncture into a test tube containing heparin. The sample was kept at room temperature for analysis.
10 μl of the anticoagulated blood sample was diluted with 290 μl of the isotonic diluent of Example 1 in a test tube. 10 μl of anti CD71-FITC monoclonal antibody at saturating concentration was added into the diluted blood, and the test tube was vortexed and then incubated at room temperature for 30 minutes. 20 μl of the diluted sample containing anti CD71-FITC antibody was taken into a second test tube, and 400 μl of the permeation reagent of Example 1 was added and vortexed immediately. The formed permeation sample mixture was incubated at room temperature for 10 minutes. […]
The final sample mixture was analyzed on a FC500 MCL cytometer (Beckman Coulter, Inc., Fullerton, Calif.). […]
Both FL1 and FL4 were in a logarithmic scale. FL1 and FL4 were the fluorescent signals of the final sample mixture detected at 525 nm and 675 nm, respectively. […]
A mouse was treated with methyl methane sulfonate with a dosage of 50 mg/Kg 24 hours prior to the blood collection. The peripheral blood was collected and processed as described in Example 2, and the final sample mixture was analyzed on the same FC500 MCL cytometer with the identical instrument setting.

SMILES: COS(C)(=O)=O [methyl methane sulfonate]
- micronucleated reticulocytes (percentage of reticulocytes containing micronuclei): 1.30%
